# Read-outs that look alike come from different tables or passages of the source.
# Target: T1, human α7 nAChR stably expressed in a HEK cell line (with human RIC-3) (Homo sapiens, UniProt P36544)
# T1 construct: PrecisION hnAChR α7/RIC-3 (product name; no catalogue number given)
# Experiment: Automated patch-clamp electrophysiology functional assay (Assay A), IonFlux HT, whole-cell population patch
# Format: cell-based
# Method: The α7 nAChR positive allosteric modulator (PAM) activity of the present compounds may be tested using assays known in the art. The α7 nAChR PAMs described herein have activities in an automated patch-clamp electrophysiology functional assay as described in the examples. The assay was performed using the IonFlux HT in a whole-cell, population patch configuration. See Golden et al. Assay Drug Dev. Technol. (2011) 9:608-619. The compounds were assessed for their ability to modulate the function of the human α7 nAChR stably expressed in a HEK cell line both in the presence, and in the absence of the natural α7 agonist acetylcholine. By performing a series of such measurements at different concentrations, the effective concentration of the α7 nAChR PAMs (EC50) was determined. See Spencer et al. Assay Drug Dev. Technol. (2012) 10:313-324.
# Direct activation of α7 (agonism), and potentiation of acetylcholine-evoked α7 currents was determined as follows:
# Automated Patch-Clamp Electrophysiology Functional Assay (Assay A)
# Automated patch-clamp electrophysiology was performed using the IonFlux HT (Fluxion Biosciences Inc., San Francisco, Calif.) in the whole-cell, population patch configuration. Test compounds were assessed for their ability to modulate the function of the α7 nicotinic acetylcholine receptor both in the presence, and in the absence of the natural α7 agonist acetylcholine. A HEK cell line stably expressing both human RIC-3 and human α7 (PrecisION hnAChR α7/RIC-3, Eurofins Pharma, St. Charles, Mo.) was cultured in 175 cm^2 triple-layer tissue culture flasks to no more than 90% confluency in DMEM/F-12 growth media supplemented with 10% heat-inactivated fetal bovine serum, 1% non-essential amino acids, 0.625 μg/mL Puromycin, and 400 μg/mL Geneticin. Immediately prior to assay, cells were detached by first aspirating growth media, rinsing with Dulbecco's phosphate buffered saline, and then adding 10 mL of Accutase (Innovative Cell Technologies, San Diego, Calif.) to the flask and then incubating at 37° C. for 5 minutes. Detached cells were then recovered by the addition of 40 mL of CHO-serum-free media supplemented with 25 mM HEPES, and rocked gently in a 50 mL conical tube for 20 minutes prior to patch-clamp assay. After recovery, cells were pelleted by centrifugation at 1,000 RPM for 1 minute in a compact bench top centrifuge; recovery media was aspirated and cells were resuspended in external recording solution (150 mM NaCl, 5 mM KCl, 2 mM CaCl2, 1 mM MgCl2, 10 mM HEPES, 12 mM dextrose) to a density of 5.0×10^6 cells/mL. The cell suspension was added to the cell inlet wells on an IonFlux HT population patch plate which had previously been rinsed and primed with deionized H2O. Test compounds were serially diluted in DMSO and then resuspended to the final test concentration in external recording solution, with, or without 40 μM acetylcholine added to the external recording solution; test compounds were then transferred to the IonFlux HT population patch plate. Internal recording solution (110 mM TrisPO4, 28 mM TrisBase, 0.1 mM CaCl2, 2 mM MgCl2, 11 mM EGTA, 4 mM MgATP) was added to the internal recording solution inlet wells on the IonFlux HT patch plate previously loaded with cells and test compounds, and the plate loaded into the IonFlux HT instrument. A protocol was executed on the IonFlux HT to trap the cells, break into the cells, and establish the whole-cell recording configuration; cells were voltage-clamped at a holding potential of −60 mV for the duration of the experiment, all experiments were conducted at room temperature, and the IonFlux HT injection pressure was 8 psi for solution applications. Upon establishing the whole-cell configuration, external recording solution was perfused into the recording chambers for 120 seconds and then 40 μM acetylcholine was applied for 1 second and immediately washed off with external recording solution for 60 seconds. […]
# [1] = automated patch-clamp electrophysiology functional assay (Assay A), potency class by EC50, read-out: α7 nAChR Potency
# [2] = HEK cell line stably expressing human α7 and human RIC-3, 40 μM acetylcholine, holding potential −60 mV, room temperature, read-out: α7 nAChR EC50
# T1 sequence (P36544 23-502): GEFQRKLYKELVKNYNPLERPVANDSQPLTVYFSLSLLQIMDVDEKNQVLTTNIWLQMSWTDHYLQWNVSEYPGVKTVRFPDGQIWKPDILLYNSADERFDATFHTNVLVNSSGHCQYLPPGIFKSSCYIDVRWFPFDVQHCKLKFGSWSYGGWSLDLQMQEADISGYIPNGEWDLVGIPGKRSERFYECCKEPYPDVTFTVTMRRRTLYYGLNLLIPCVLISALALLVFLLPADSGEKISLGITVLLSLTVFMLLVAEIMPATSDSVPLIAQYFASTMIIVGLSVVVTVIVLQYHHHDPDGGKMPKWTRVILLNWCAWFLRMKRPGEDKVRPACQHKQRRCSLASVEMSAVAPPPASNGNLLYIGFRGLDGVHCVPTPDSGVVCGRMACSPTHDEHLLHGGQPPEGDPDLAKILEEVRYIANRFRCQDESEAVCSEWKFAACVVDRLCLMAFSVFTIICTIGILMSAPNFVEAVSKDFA
Compound,EC50 [1] [µM],EC50 [2] [µM]
Cc1cccc(F)c1-c1noc([C@@H]2C[C@H]2c2ccc(S(N)(=O)=O)cc2)n1 [Example C11],0.1 to 0.5,
CC1(c2nc(-c3ccc(F)cc3F)no2)CC1c1ccc(S(N)(=O)=O)cc1 (centres unmarked) [Example E3],5 to 50,6.9
CC(C)c1csc([C@H]2[C@H](c3ccc(S(N)(=O)=O)cc3)C2(C)C)n1 [Example K11],0.5 to 5,1.1
NS(=O)(=O)c1ccc(C2C(c3cnc(-c4ccccc4)o3)C2(F)F)cc1 (racemic) [Example M1],0.5 to 5,
NS(=O)(=O)c1ccc([C@@H]2C[C@H]2c2ncc(C3CCCC3)s2)cc1 [Example K15],0.1 to 0.5,
CC1(C)[C@H](c2ccc(S(N)(=O)=O)cc2)[C@H]1c1nnc(C2CCCCC2)s1 [Example F7],0.5 to 5,
CC(Oc1cccc(Cl)c1)c1nc(C2C(c3ccc(S(N)(=O)=O)cc3)C2(C)C)no1 (centres unmarked) [Example I2],≤ 0.1,
"4-{(1S,3S)-3-[2-(3-Fluorophenyl)-1-methyl-1H-imidazol-4-yl]-2,2-dimethylcycloproyl}benzenesulfonamide [Example 35]",0.5 to 5,4.4
"Cc1cc(S(N)(=O)=O)ccc1[C@H]1C(c2nc(-c3ccccc3)no2)C1(C)C (single isomer, unassigned; enantiomer a) [Example 38, 4-[trans-2,2-Dimethyl-3-(3-phenyl-1,2,4-oxadiazol-5-yl)cyclopropyl]-3-methylbenzenesulfonamide, enantiomer A]",0.5 to 5,4.3
CC1(C)[C@@H](c2ccc(S(N)(=O)=O)cc2)[C@@H]1c1nc(-c2cccc(F)c2)cs1 [Example K10],0.5 to 5,3.9
NS(=O)(=O)c1ccc(C2C(c3nc(-c4ccccc4)no3)C2(Cl)Cl)cc1 (racemic) [Example M9],0.1 to 0.5,0.14
CC1(C)[C@H](c2ccc(S(N)(=O)=O)cc2)[C@H]1c1nc(-c2ccc(F)cc2C(F)(F)F)no1 [Example A2],0.5 to 5,1.7
CC1(c2ccc(S(N)(=O)=O)cc2)CC1c1nc(-c2ccc(F)cc2F)no1 (centres unmarked) [Example E4],0.5 to 5,1.7
CC1(C)[C@H](c2ccc(S(N)(=O)=O)cc2)[C@H]1c1nc(C2CC2)co1 [Example J5],0.5 to 5,
CC1(C)[C@@H](c2ccc(S(N)(=O)=O)cc2)[C@@H]1c1nc(-c2cc(F)ccc2F)co1 [Example K2],0.5 to 5,1.6
"Cc1cc(C2C(c3nc(-c4ccccc4)no3)C2(C)C)ccc1S(N)(=O)=O (single isomer, unassigned) [Example M8]",5 to 50,
CC1(C)[C@@H](c2ccc(S(N)(=O)=O)cc2)[C@@H]1c1noc(-c2ccncc2C(F)(F)F)n1 [Example I20],,0.45
